The source of these data is patent US9408803B2, “Compositions containing lignan-class compounds” (SUNTORY HOLDINGS LIMITED, priority 2006, dated 2016).

Data set [1] in a line: Solubility test in fats or oils (crystal formation after standing overnight at room temperature). Type of data set: physicochemical. An excerpt: Three samples were used and they included not only a mixture of sesamin and episesamin (sesamin:episesamin=51.1:48.2) but also sesamin and episesamin that were individually purified from the mixture. The wheat germ oil was a product of RIKEN VITAMIN CO., LTD.; the olive oil was a product of nakalai tesque; used as middle-chain fatty acids (MCTs) were ACTOR M-1 (a triglyceride of middle-chain fatty acid with C8:C10:C12=56:42:2) and ACTOR M-2 (a triglyceride of C8 middle-chain fatty acid), both being products of RIKEN VITAMIN CO., LTD. The diacylglycerol was a commercial fat or oil (Econa Cooking Oil of KAO CORPORATION, an edible oil containing about 80% diacylglycerol).
Into test tubes, there were weighed 2 g of the respective fats or oils and various concentrations of the samples that increased from 0.5 to 10% (by weight) by an increment of 0.25%. Then, the test tubes were heated to 120° C. so that sesamin completely dissolved in the fats or oils. Thereafter, the test tubes were allowed to stand overnight at room temperature to examine whether crystals would be formed or not.

On the set-up of data set [2]: species or system rats. The settings on record: rat, in vivo. From the text: It may well be said that a preferred mode of ingesting sesamin and/or episesamin is by dissolving them in fat or oil; however, sesamin and/or episesamin is only slightly soluble and has such low solubility in fat or oil (wheat germ oil) that not only is it difficult to incorporate them at high concentrations but, at the same time, even if they are incorporated at low concentrations, a crystal may precipitate during storage on account of their low storage stability. This crystal precipitation can potentially result in lowered absorbability, so considering the storage stability, there has been no alternative to incorporating them at concentrations considerably lower than their solubility in fat or oil (wheat germ oil). Under these circumstances, when one made an attempt to increase the dose of sesamin and/or episesamin that could be ingested at a time, the amount of the solvent fat or oil also had to be increased, inevitably resulting in an excessive calorie intake. In addition, the volume of the sesamin and/or episesamin containing composition that is prescribed becomes so large per unit dosage or their quantities to be ingested become so large that inconveniences in ingestion have occasionally occurred. […]

For data set [3], the system named is β-oxidation enzymes in the liver. To be noted: as compared with sesamin; cited from earlier work.

Structures are written as SMILES.

On to `c1cc2c(cc1[C@H]1OC[C@H]3[C@@H]1CO[C@@H]3c1ccc3c(c1)OCO3)OCO2` [Episesamin, episesamin], for which the “factor of solubility improvement over wheat germ oil” value in data set [1] is recorded as 2.5-5.5. Moreover, in data set [2], the “bodily absorption, solution in fat or oil vs suspension in water” value is “significantly superior in bodily absorption”. Besides, the “gene expression and enzymatic activity of β-oxidation enzymes in the liver” value in data set [3] was “markedly increasing”.
For the compound `c1cc2c(cc1[C@H]1OC[C@H]3[C@@H]1CO[C@@H]3c1ccc3c(c1)OCO3)OCO2` [Sesamin, sesamin], the “factor of solubility improvement over wheat germ oil” value in data set [1] is 2.5-5.5. Further, in data set [2], the “bodily absorption, solution in fat or oil vs suspension in water” value is “significantly superior in bodily absorption”.
